{"source": "BindingDB's records for doi:10.1016/j.bioorg.2016.07.008", "about": "(Universiti Teknologi Mara, 2016)", "data": [{"target": "T1, Beta-glucuronidase (Homo sapiens, UniProt P08236)", "T1 sequence (P08236 whole entry)": "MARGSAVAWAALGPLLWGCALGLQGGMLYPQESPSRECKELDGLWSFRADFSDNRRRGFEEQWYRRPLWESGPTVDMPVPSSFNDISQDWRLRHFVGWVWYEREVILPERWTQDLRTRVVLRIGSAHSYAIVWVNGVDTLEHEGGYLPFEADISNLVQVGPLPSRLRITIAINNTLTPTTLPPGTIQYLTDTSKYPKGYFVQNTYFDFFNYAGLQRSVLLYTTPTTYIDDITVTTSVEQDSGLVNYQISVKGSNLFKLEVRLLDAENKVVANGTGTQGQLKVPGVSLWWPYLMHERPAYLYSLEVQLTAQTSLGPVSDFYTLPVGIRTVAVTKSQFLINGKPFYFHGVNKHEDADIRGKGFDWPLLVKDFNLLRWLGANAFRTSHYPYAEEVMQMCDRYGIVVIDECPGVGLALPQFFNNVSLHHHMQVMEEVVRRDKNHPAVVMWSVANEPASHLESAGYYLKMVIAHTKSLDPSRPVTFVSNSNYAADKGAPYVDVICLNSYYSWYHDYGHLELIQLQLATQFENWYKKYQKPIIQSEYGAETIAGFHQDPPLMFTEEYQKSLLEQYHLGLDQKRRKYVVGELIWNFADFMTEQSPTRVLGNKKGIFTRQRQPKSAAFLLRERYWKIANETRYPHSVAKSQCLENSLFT", "assay": "β-Glucuronidase Bioassay", "units": {"IC50": "µM"}, "protocol": "The total reaction volume was 250 µL. The reaction mixture contained 185 µL of 0.1 M acetate buffer, 5 µL of test compound solution, 10 µL of enzyme solution was incubated at 37 °C for 30 min. […] All assays were run in triplicate.", "values": [{"smiles": "COc1ccccc1NC(=S)NNC(=O)c1ccc(C(c2c[nH]c3ccccc23)c2c[nH]c3ccccc23)cc1", "note": "[2-(4-(Di(1H-indol-3-yl)methyl)benzoyl)-N-(2-methoxyphenyl)hydrazinecarbothioamide (18)]", "IC50": 9.4}, {"smiles": "COc1cccc(NC(=S)NNC(=O)c2ccc(C(c3c[nH]c4ccccc34)c3c[nH]c4ccccc34)cc2)c1", "note": "[2-(4-(Di(1H-indol-3-yl)methyl)benzoyl)-N-(3-methoxyphenyl)hydrazinecarbothioamide (15)]", "IC50": 28.1}, {"smiles": "COc1ccc(NC(=S)NNC(=O)c2ccc(C(c3c[nH]c4ccccc34)c3c[nH]c4ccccc34)cc2)cc1", "note": "[2-(4-(Di(1H-indol-3-yl)methyl)benzoyl)-N-(4-methoxyphenyl)hydrazinecarbothioamide (9)]", "IC50": 11.6}, {"smiles": "O=C(NNC(=S)Nc1ccc([N+](=O)[O-])cc1)c1ccc(C(c2c[nH]c3ccccc23)c2c[nH]c3ccccc23)cc1", "note": "[2-(4-(Di(1H-indol-3-yl)methyl)benzoyl)-N-(4-nitrophenyl)hydrazinecarbothioamide (10)]", "IC50": 12}, {"smiles": "Cc1cccc(NC(=S)NNC(=O)c2ccc(C(c3c[nH]c4ccccc34)c3c[nH]c4ccccc34)cc2)c1", "note": "[2-(4-(Di(1H-indol-3-yl)methyl)benzoyl)-N-(m-tolyl)hydrazinecarbothioamide (11)]", "IC50": 14.7}, {"smiles": "Cc1ccc(NC(=S)NNC(=O)c2ccc(C(c3c[nH]c4ccccc34)c3c[nH]c4ccccc34)cc2)cc1", "note": "[2-(4-(Di(1H-indol-3-yl)methyl)benzoyl)-N-(p-tolyl)hydrazinecarbothioamide (5)]", "IC50": 15}, {"smiles": "O=C(NNC(=S)Nc1cccc(Br)c1)c1ccc(C(c2c[nH]c3ccccc23)c2c[nH]c3ccccc23)cc1", "note": "[N-(3-Bromophenyl)-2-(4-(di(1H-indol-3-yl)methyl)benzoyl)hydrazinecarbothioamide (13)]", "IC50": 21.4}, {"smiles": "O=C(NNC(=S)Nc1ccc(Br)cc1)c1ccc(C(c2c[nH]c3ccccc23)c2c[nH]c3ccccc23)cc1", "note": "[N-(4-Bromophenyl)-2-(4-(di(1H-indol-3-yl)methyl)benzoyl)hydrazinecarbothioamide (7)]", "IC50": 33.2}]}]}
